Experimental data reported in PMC9221851, “A Fluorescence-Based Competitive Antibody Binding Assay for Kynurenine, a Potential Biomarker of Kidney Transplant Failure” (Diagnostics, 2022).

Tests used:
[1] = target: T1, anti-kynurenine antibody (monoclonal Mouse IgG1a k chain, clone 3D4-F2); experiment: competitive magnetic bead immunoassay, displacement of fluorescent conjugate […] in PBS; assay type: binding
T1 construct: biotinylated whole antibody on streptavidin magnetic beads

[2] = target: T1, anti-kynurenine antibody (monoclonal Mouse IgG1a k chain, clone 3D4-F2); experiment: magnetic bead immunoassay, fluorescence of unbound conjugate in supernatant; assay type: binding

Nc1ccccc1C(=O)C[C@H](N)C(=O)O [L-kynurenine]
IC50 [1]: 4 µM

CCN(CC)c1ccc2c(-c3ccccc3C(=O)OCc3cn(CCOCCOCCOCCNC(=O)[C@@H](N)CC(=O)c4ccccc4N)nn3)c3ccc(N(CC)CC)cc3[o+]c2c1 [compound 5, L-Kyn-4EG-RhB]
Kd [2]: 5.9 µM
